Experiment: xn = mol fraction of the nth substance listed
Conditions: 298.15 K, Liquid

ClCCCCCCCl [1,6-dichlorohexane] + CN1CCCC1=O
mass density [kg/m3]
Conditions | x2 = 0.1182 | x2 = 0.2016 | x2 = 0.3079 | x2 = 0.4114 | x2 = 0.5049 | x2 = 0.6008 | x2 = 0.7023 | x2 = 0.8009 | x2 = 0.8972
100 kPa | 1060.7 | 1058.4 | 1055.4 | 1052 | 1049 | 1045.6 | 1041.6 | 1037.5 | 1033.1
500 kPa | 1060.9 | 1058.7 | 1055.6 | 1052.3 | 1049.2 | 1045.8 | 1041.8 | 1037.7 | 1033.4
1000 kPa | 1061.3 | 1059.1 | 1056 | 1052.6 | 1049.5 | 1046.1 | 1042.1 | 1038 | 1033.6
1500 kPa | 1061.6 | 1059.4 | 1056.3 | 1052.9 | 1049.8 | 1046.4 | 1042.4 | 1038.3 | 1033.9
2000 kPa | 1062 | 1059.7 | 1056.6 | 1053.3 | 1050.1 | 1046.7 | 1042.7 | 1038.6 | 1034.2
2500 kPa | 1062.3 | 1060 | 1056.9 | 1053.6 | 1050.5 | 1047 | 1043 | 1038.9 | 1034.4
3000 kPa | 1062.6 | 1060.4 | 1057.3 | 1053.9 | 1050.8 | 1047.3 | 1043.3 | 1039.1 | 1034.7
3500 kPa | 1063 | 1060.8 | 1057.6 | 1054.3 | 1051.1 | 1047.6 | 1043.6 | 1039.4 | 1035
4000 kPa | 1063.3 | 1061.1 | 1057.9 | 1054.6 | 1051.4 | 1047.9 | 1043.9 | 1039.7 | 1035.3
4500 kPa | 1063.7 | 1061.4 | 1058.3 | 1054.9 | 1051.7 | 1048.2 | 1044.2 | 1040 | 1035.5
5000 kPa | 1064 | 1061.8 | 1058.6 | 1055.2 | 1052 | 1048.5 | 1044.4 | 1040.3 | 1035.8
5500 kPa | 1064.4 | 1062.1 | 1058.9 | 1055.5 | 1052.4 | 1048.9 | 1044.7 | 1040.5 | 1036.1
5900 kPa | – | – | – | – | – | 1049.2 | – | – | –
6000 kPa | 1064.7 | 1062.4 | 1059.4 | 1055.8 | 1052.7 | – | 1045 | 1040.8 | 1036.4
6500 kPa | 1065 | 1062.8 | 1059.6 | 1056.1 | 1053 | 1049.4 | 1045.3 | 1041.1 | 1036.6
7000 kPa | 1065.4 | 1063.1 | 1059.9 | 1056.5 | 1053.3 | 1049.7 | 1045.6 | 1041.4 | 1036.9
7500 kPa | 1065.7 | 1063.5 | 1060.2 | – | 1053.6 | 1050 | 1045.9 | 1041.7 | 1037.2
7600 kPa | – | – | – | 1056.7 | – | – | – | – | –
8000 kPa | 1066.1 | 1063.7 | 1060.5 | 1057.1 | 1054 | 1050.3 | 1046.2 | 1041.9 | 1037.4
8500 kPa | 1066.5 | 1064 | 1060.8 | 1057.4 | 1054.2 | 1050.6 | 1046.5 | 1042.2 | 1037.8
8900 kPa | 1066.7 | – | – | – | – | – | – | – | –
9000 kPa | – | 1064.4 | 1061.2 | 1057.7 | 1054.5 | 1050.9 | 1046.8 | 1042.5 | 1038
9500 kPa | 1067 | 1064.8 | 1061.5 | 1058 | 1054.9 | 1051.2 | 1047.1 | 1042.8 | 1038.2
10000 kPa | 1067.4 | 1065.2 | 1061.9 | 1058.4 | 1055.2 | 1051.6 | 1047.4 | 1043.1 | 1038.6
10500 kPa | 1067.8 | 1065.4 | 1062.2 | 1058.7 | 1055.6 | 1051.9 | 1047.7 | 1043.4 | 1038.8
11000 kPa | 1068.1 | 1065.8 | 1062.5 | 1059 | 1055.9 | 1052.2 | 1048 | 1043.6 | 1039.1
11500 kPa | 1068.4 | 1066.1 | 1062.8 | 1059.3 | 1056.2 | 1052.4 | 1048.2 | 1044 | 1039.3
12000 kPa | 1068.8 | 1066.4 | 1063.1 | 1059.6 | 1056.4 | 1052.7 | 1048.5 | 1044.2 | 1039.6
12500 kPa | 1069.1 | 1066.7 | 1063.5 | 1059.9 | 1056.7 | 1053 | 1048.8 | 1044.5 | 1039.8
13000 kPa | 1069.4 | 1067 | 1063.8 | 1060.3 | 1057 | 1053.3 | 1049.2 | 1044.8 | 1040.1
13400 kPa | – | – | – | – | – | – | 1049.5 | – | –
13500 kPa | 1069.7 | 1067.4 | 1064.1 | 1060.6 | 1057.3 | 1053.6 | – | 1045.1 | 1040.4
13900 kPa | – | – | – | – | 1057.6 | – | – | – | –
14000 kPa | 1070 | 1067.6 | 1064.4 | 1060.9 | – | 1053.9 | 1049.7 | 1045.3 | 1040.6
14400 kPa | – | – | – | – | – | – | – | 1045.6 | –
14500 kPa | 1070.4 | 1068 | 1064.7 | 1061.2 | 1057.9 | 1054.2 | 1050 | – | 1041
15000 kPa | 1070.7 | 1068.3 | 1065 | 1061.5 | 1058.2 | 1054.5 | 1050.3 | 1045.9 | 1041.2
15400 kPa | – | – | – | 1061.8 | – | – | – | – | –
15500 kPa | 1071 | 1068.6 | 1065.4 | – | 1058.5 | 1054.8 | 1050.6 | 1046.2 | 1041.4
16000 kPa | 1071.4 | 1069 | 1065.6 | 1062 | 1058.8 | 1055.1 | 1050.8 | 1046.4 | 1041.7
16500 kPa | 1071.7 | 1069.2 | 1065.9 | 1062.4 | 1059.1 | 1055.4 | 1051 | 1046.6 | 1041.9
16900 kPa | – | – | 1066.2 | – | – | – | – | – | –
17000 kPa | 1072 | 1069.6 | – | 1062.7 | 1059.4 | 1055.6 | 1051.3 | 1046.9 | 1042.2
17500 kPa | 1072.3 | 1069.8 | 1066.5 | – | 1059.7 | 1055.9 | 1051.6 | 1047.2 | 1042.5
17600 kPa | – | – | – | 1063 | – | – | – | – | –
17900 kPa | 1072.6 | – | – | – | – | 1056.2 | – | – | –
18000 kPa | – | 1070.2 | 1066.7 | 1063.3 | 1059.9 | – | 1051.8 | 1047.5 | 1042.7
18400 kPa | – | – | – | – | – | – | – | 1047.6 | –
18500 kPa | 1072.9 | 1070.5 | 1067.1 | 1063.5 | 1060.2 | 1056.5 | 1052.1 | – | 1043
19000 kPa | 1073.3 | 1070.8 | 1067.4 | 1063.9 | 1060.6 | 1056.8 | 1052.4 | 1048 | 1043.2
19400 kPa | – | – | 1067.7 | 1064.1 | – | – | – | – | –
19500 kPa | 1073.6 | 1071.1 | – | – | 1060.9 | 1057 | 1052.8 | 1048.2 | 1043.5
20000 kPa | 1073.9 | 1071.4 | 1068.2 | – | 1061.2 | 1057.5 | 1053 | 1048.7 | 1043.8
20100 kPa | – | – | – | 1064.5 | – | – | – | – | –

From the NIST ThermoML archive (doi:10.1021/je7003758)
